Results as given in patent publication US10369185B2, “Methods and compositions for enhancement of ability to concentrate” (KYOWA HAKKO BIO CO., LTD., priority 2014, dated 2019).
Entries after “also recorded” stand apart in the source; their conditions may differ. Peptide text beside a SMILES is read from it.

Tested on: male runners
Assay: Lower body reaction, 20-second Quick Board test
Assay type: in vivo, human
Settings: for QuickBoard Hit Δ, group mean: Post-Pre; for changes in lower body reaction (Quick Board): LD and HD, no significant differences between groups
Procedure: The testing protocol is depicted in FIG. 1. Data collection occurred on four separate occasions. Each session required participants to perform a 60-min run at 75% of their previously measured VO2max. Following this run, all participants performed a run at 90% of their VO2max until volitional exhaustion. All participants performed their first trial (DHY) without any rehydration. During this session the total weight lost during the trial was determined. The fluid loss that occurred during this session was then used to determine the participant's swear rate (L·hr^−1). To continue in the study, participant's sweat rate was or exceeded 1.3 L·hr^−1. During the next three trails participants were provided 250 ml of fluid every 15 minutes in equal amounts. During one of the trials participants consumed only a flavored sports drink (ELECT only), while during the other trials participants consumed the alanine-glutamine supplement (Sustamine™) mixed in the same flavored sports drink at either a low (LD: 300 mg per 500 ml) or high (HD: 1 g per 500 ml) dose. A Lower body reaction time was assessed by a 20-second reaction test on the Quick Board™ (The Quick Board, LLC, Memphis, Tenn.) reaction timer (QB). Participants stood on a board of five circles, in a 2×1×2 pattern. The participant straddled the middle circle and reacted to a visual stimulus located on a display box that depicted one of five potential lights that corresponded with the circles on the board. Upon activation of the light, the participant attempted to move the foot closest to the circle that corresponded to the visual stimulus. Upon a successful connection the next stimulus appeared. The total number of successful attempts for the 20-second test and the average time between the activation of the light and the response to the corresponding circle were recorded. Additionally, to make inferences on true effects of the different trials on reaction performance, an analysis based on the magnitude of differences, calculated from 90% confidence intervals, as previously described by Batterham and Hopkins (2005), was used in this study. Differences in Post-Pre performance (Δresponse) between trials were analyzed via a published spreadsheet (Hopkins 2007), with the smallest non-trivial change set at 20% of the grand standard deviation (Batterham and Hopkins 2005). All data are expressed as a mean effect±SD, with percent chances of a beneficial, trivial or negative outcome. Qualitative inferences, based on quantitative chances were assessed as: <1% almost certainly not, 1-5% very unlikely, 5-25% unlikely, 25-75% possibly, 75-95% likely, 95-99% very likely and >99% almost certainly (Hopkins 2002).

With `C[C@H](N)C(=O)N[C@@H](CCC(N)=O)C(=O)O` [L-Alanyl-L-Glutamine] (H-Ala-Gln-OH) the “QuickBoard Hit Δ, Interpretation” value (Dehydration vs High Dose) was “likely lower”, the “QuickBoard Hit Δ, Mean Difference” value (Dehydration vs High Dose) was −2.6 and the “QuickBoard Hit Δ, Percent Negative” value (Dehydration vs High Dose) was 90.99%. For the same compound, the “QuickBoard Hit Δ, Percent Positive” value (Dehydration vs High Dose) was 1.92%, the “QuickBoard Hit Δ, Percent Trivial” value (Dehydration vs High Dose) was 7.10% and the “QuickBoard Hit Δ, Interpretation” value (Dehydration vs Low Dose) was “likely lower”. For the same compound, the “QuickBoard Hit Δ, Mean Difference” value (Dehydration vs Low Dose) was −2.2, the “QuickBoard Hit Δ, Percent Negative” value (Dehydration vs Low Dose) was 88.90% and the “QuickBoard Hit Δ, Percent Positive” value (Dehydration vs Low Dose) was 1.93%. For the same compound, the “QuickBoard Hit Δ, Percent Trivial” value (Dehydration vs Low Dose) was 9.16%, the “QuickBoard Hit Δ, Interpretation” value (Gatorade vs High Dose) was “Unclear” and the “QuickBoard Hit Δ, Mean Difference” value (Gatorade vs High Dose) was −1.7. The “QuickBoard Hit Δ, Percent Negative” value (Gatorade vs High Dose) was 73.53%, the “QuickBoard Hit Δ, Percent Positive” value (Gatorade vs High Dose) was 9.72% and the “QuickBoard Hit Δ, Percent Trivial” value (Gatorade vs High Dose) was 16.75%. The “QuickBoard Hit Δ, group mean” value (High Dose (1 g per 500 ml)) was 1.17, the “changes in lower body reaction (Quick Board)” value was “performance appeared to improve in LD and HD” and the “changes in lower body reaction (Quick Board)” value (listed as L-alanyl-L-glutamine) was “Performance appeared to improve”. The “QuickBoard Hit Δ, group mean” value (Low Dose (300 mg per 500 ml)) was 0.75, the “QuickBoard Hit Δ, Interpretation” value (Low Dose vs Gatorade) was “Unclear” and the “QuickBoard Hit Δ, Mean Difference” value (Low Dose vs Gatorade) was 1.3. For the same compound, the “QuickBoard Hit Δ, Percent Negative” value (Low Dose vs Gatorade) was 17.75%, the “QuickBoard Hit Δ, Percent Positive” value (Low Dose vs Gatorade) was 63.09% and the “QuickBoard Hit Δ, Percent Trivial” value (Low Dose vs Gatorade) was 19.15%. The “QuickBoard Hit Δ, Interpretation” value (Low Dose vs High Dose) was “trivial; also recorded: Possibly”, the “QuickBoard Hit Δ, Mean Difference” value (Low Dose vs High Dose) was 0.42 and the “QuickBoard Hit Δ, Percent Negative” value (Low Dose vs High Dose) was 29.69%. The “QuickBoard Hit Δ, Percent Positive” value (Low Dose vs High Dose) was 0.19% and the “QuickBoard Hit Δ, Percent Trivial” value (Low Dose vs High Dose) was 70.12%.
